Laboratory results published in patent publication US10294207B2, “Pyrazole derivatives as TNIK, IKKϵ and TBK1 inhibitor and pharmaceutical composition comprising same” (GREEN CROSS CORPORATION, priority 2015, dated 2019).

Tests used:
[1] = biological target: T1, TBK1 (Homo sapiens, UniProt Q9UHD2); test: TBK1 inhibition, ADP-Glo Kinase Assay; assay type: biochemical; conditions: luminometer
T1 construct: purchased Promega V3991
T1 sequence (Q9UHD2 1-729): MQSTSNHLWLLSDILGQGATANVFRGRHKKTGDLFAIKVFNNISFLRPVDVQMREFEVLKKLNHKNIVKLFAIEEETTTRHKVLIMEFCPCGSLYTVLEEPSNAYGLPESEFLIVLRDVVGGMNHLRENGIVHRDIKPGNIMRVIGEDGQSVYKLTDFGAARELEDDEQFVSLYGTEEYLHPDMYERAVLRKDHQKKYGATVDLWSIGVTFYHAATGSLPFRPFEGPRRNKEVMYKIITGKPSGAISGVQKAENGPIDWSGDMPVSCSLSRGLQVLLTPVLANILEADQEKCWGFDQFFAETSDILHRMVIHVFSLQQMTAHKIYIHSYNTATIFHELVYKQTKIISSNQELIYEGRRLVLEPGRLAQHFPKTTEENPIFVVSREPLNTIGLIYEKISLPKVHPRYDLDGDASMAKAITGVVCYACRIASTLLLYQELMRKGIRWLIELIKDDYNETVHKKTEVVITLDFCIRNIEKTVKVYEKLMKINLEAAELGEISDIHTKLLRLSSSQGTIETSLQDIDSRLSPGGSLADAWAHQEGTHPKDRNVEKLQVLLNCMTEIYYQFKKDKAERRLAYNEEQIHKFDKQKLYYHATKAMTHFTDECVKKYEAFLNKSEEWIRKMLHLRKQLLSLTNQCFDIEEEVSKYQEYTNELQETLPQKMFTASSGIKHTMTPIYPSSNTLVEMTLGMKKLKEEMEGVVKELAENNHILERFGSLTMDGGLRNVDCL
Procedure, shortened: (§1)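 Each recombinant kinase enzyme system was run per the manufacturer's protocol in 40 mM Tris pH 7.5, 20 mM MgCl2 and 0.1 mg/mL BSA. Kinase activity was detected as ADP formation by ADP-Glo luminescence.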

[2] = biological target: T2, IKKε (Homo sapiens, UniProt Q14164); test: IKKε inhibition, ADP-Glo Kinase Assay; assay type: biochemical; conditions: luminometer
T2 construct: purchased Invitrogen PR8031B
T2 sequence (Q14164 1-716): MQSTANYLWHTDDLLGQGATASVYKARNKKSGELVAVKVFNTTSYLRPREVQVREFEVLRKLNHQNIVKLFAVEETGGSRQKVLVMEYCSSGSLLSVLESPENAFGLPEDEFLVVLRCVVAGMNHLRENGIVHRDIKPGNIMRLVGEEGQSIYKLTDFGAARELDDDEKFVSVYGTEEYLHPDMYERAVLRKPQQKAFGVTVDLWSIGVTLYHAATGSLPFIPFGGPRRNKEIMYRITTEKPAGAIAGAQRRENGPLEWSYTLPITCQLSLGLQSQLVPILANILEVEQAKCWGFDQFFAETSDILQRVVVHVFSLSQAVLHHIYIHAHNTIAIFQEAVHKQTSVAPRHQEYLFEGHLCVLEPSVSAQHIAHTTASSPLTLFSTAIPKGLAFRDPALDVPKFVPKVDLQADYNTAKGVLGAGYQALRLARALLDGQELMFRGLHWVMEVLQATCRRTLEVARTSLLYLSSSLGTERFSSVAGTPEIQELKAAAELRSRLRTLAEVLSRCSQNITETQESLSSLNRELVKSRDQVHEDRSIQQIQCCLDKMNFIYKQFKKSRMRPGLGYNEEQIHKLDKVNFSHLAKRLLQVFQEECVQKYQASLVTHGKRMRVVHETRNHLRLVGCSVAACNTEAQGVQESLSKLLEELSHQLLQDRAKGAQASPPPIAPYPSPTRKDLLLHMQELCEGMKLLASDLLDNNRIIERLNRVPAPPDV
Procedure, shortened: as §1

IC50 [1] [µM] | IC50 [2] [µM] | SMILES
0.033 | 0.26 | CN1CCN(c2ccc(C(=O)Nc3n[nH]c4ccc(C(=O)NCc5ccon5)cc34)cc2)CC1 [Example 173, N-(Isoxazol-3-ylmethyl)-3-(4-(4-methylpiperazin-1-yl)benzamido)-1H-indazole-5-carboxamide]
0.045 | 0.54 | CN1CCN(c2ccc(C(=O)Nc3n[nH]c4ccc(C(=O)NCc5cscn5)cc34)cc2)CC1 [Example 174, 3-(4-(4-Methylpiperazin-1-yl)benzamido)-N-(thiazol-4-ylmethyl)-1H-indazole-5-carboxamide]
0.0024 | 0.0076 | C[C@@H](NC(=O)c1ccc2[nH]nc(NC(=O)c3ccc(N4CCN(C)CC4)cc3)c2c1)c1ccccc1 [Example 175, (R)-3-(4-(4-Methylpiperazin-1-yl)benzamido)-N-(1-phenylethyl)-1H-indazole-5-carboxamide]
0.058 | 0.34 | C[C@H](NC(=O)c1ccc2[nH]nc(NC(=O)c3ccc(N4CCN(C)CC4)cc3)c2c1)c1ccccc1 [Example 176, (S)-3-(4-(4-Methylpiperazin-1-yl)benzamido)-N-(1-phenylethyl)-1H-indazole-5-carboxamide]
0.011 | 0.033 | O=C(NCc1ccccc1)c1ccc2[nH]nc(NC(=O)c3ccc(N4CCOCC4)cc3)c2c1 [Example 177, N-Benzyl-3-(4-morpholinobenzamido)-1H-indazole-5-carboxamide]
0.037 | 0.16 | CN1CCN(c2ccc(C(=O)Nc3n[nH]c4ccc(C(=O)NCc5ccno5)cc34)cc2)CC1 [Example 178, N-(Isoxazol-5-ylmethyl)-3-(4-(4-methylpiperazin-1-yl)benzamido)-1H-indazole-5-carboxamide]
0.0012 | 0.019 | CC(NC(=O)c1ccc2[nH]nc(NC(=O)c3ccc(N4CCN(C)CC4)cc3)c2c1)c1ccccc1 (stereo not shown) [Example 179, 3-(4-(4-Methylpiperazin-1-yl)benzamido)-N-(1-phenylethyl)-1H-indazole-5-carboxamide]
0.0023 | 0.12 | CC(NC(=O)c1ccc2[nH]nc(NC(=O)c3ccc(N4CCOCC4)cc3)c2c1)c1ccccc1 (stereo not shown) [Example 180, 3-(4-Morpholinobenzamido)-N-(1-phenylethyl)-1H-indazole-5-carboxamide]
0.0039 | 0.022 | CC(NC(=O)c1ccc2[nH]nc(NC(=O)c3ccc(N4CCNCC4)cc3)c2c1)c1ccccc1 (stereo not shown) [Example 181, N-(1-Phenylethyl)-3-(4-(piperazin-1-yl)benzamido)-1H-indazole-5-carboxamide 2,2,2-trifluoroacetate]
0.003 | 0.0081 | CC1CN(c2ccc(C(=O)Nc3n[nH]c4ccc(C(=O)NC(C)c5ccccc5)cc34)cc2)CC(C)N1 (stereo not shown) [Example 182, 3-(4-(3,5-Dimethylpiperazin-1-yl)benzamido)-N-(1-phenylethyl)-1H-indazole-5-carboxamide]
0.0043 | 0.018 | CC1CN(c2ccc(C(=O)Nc3n[nH]c4ccc(C(=O)NC(C)c5ccccc5)cc34)cc2)CC(C)O1 (stereo not shown) [Example 183, 3-(4-(2,6-Dimethylmorpholino)benzamido)-N-(1-phenylethyl)-1H-indazole-5-carboxamide]
0.0037 | 0.015 | CC(NC(=O)c1ccc2[nH]nc(NC(=O)c3ccc(N4CCN[C@@H](C)C4)cc3)c2c1)c1ccccc1 (stereo partly shown) [Example 184, 3-(4-((8)-3-Methylpiperazin-1-yl)benzamido)-N-(1-phenylethyl)-1H-indazole-5-carboxamide 2,2,2-trifluoroacetate]
0.0033 | 0.019 | CC(NC(=O)c1ccc2[nH]nc(NC(=O)c3ccc(N4CCN[C@H](C)C4)cc3)c2c1)c1ccccc1 (stereo partly drawn) [Example 185, 3-(4-((R)-3-Methylpiperazin-1-yl)benzamido)-N-(1-phenylethyl)-1H-indazole-5-carboxamide 2,2,2-trifluoroacetate]
0.0027 | 0.012 | CC(NC(=O)c1ccc2[nH]nc(NC(=O)c3ccc(N4C[C@@H](C)N[C@@H](C)C4)cc3)c2c1)c1ccccc1 (stereo partly drawn) [Example 186, 3-(4-((3R,5S)-3,5-Dimethylpiperazin-1-yl)benzamido)-N-(1-phenylethyl)-1H-indazole-5-carboxamide]

Further lines, the molecule ahead of its results:

SMILES | IC50 [1] [µM] | IC50 [2] [µM]
COCCCNc1ccc(C(=O)Nc2n[nH]c3ccc(C(=O)NCc4cccs4)cc23)cc1 [Example 151, 3-(4-((3-Methoxypropyl)amino)benzamido)-N-(thiophen-2-ylmethyl)-1H-indazole-5-carboxamide] | 0.0079 | 0.052
O=C(NCc1cccs1)c1ccc2[nH]nc(NC(=O)c3ccc(NCCN4CCCC4)cc3)c2c1 [Example 152, 3-(4-((2-(Pyrrolidin-1-yl)ethyl)amino)benzamido)-N-(thiophen-2-ylmethyl)-1H-indazole-5-carboxamide] | 0.004 | 0.092
O=C(NCc1cccs1)c1ccc2[nH]nc(NC(=O)c3ccc(NCCN4CCOCC4)cc3)c2c1 [Example 153, 3-(4-((2-morpholinoethyl)amino)benzamido)-N-(thiophen-2-ylmethyl)-1H-indazole-5-carboxamide] | 0.0037 | 0.037
CN(C)CCCNc1ccc(C(=O)Nc2n[nH]c3ccc(C(=O)NCc4cccs4)cc23)cc1 [Example 154, 3-(4-((3-(Dimethylamino)propyl)amino)benzamido)-N-(thiophen-2-ylmethyl)-1H-indazole-5-carboxamide] | 0.0086 | 0.13
CNCCN(C)c1ccc(C(=O)Nc2n[nH]c3ccc(C(=O)NCc4cccs4)cc23)cc1 [Example 155, 3-(4-(Methyl(2-(methylamino)ethyl)amino)benzamido)-N-(thiophen-2-ylmethyl)-1H-indazole-5-carboxamide] | 0.0064 | 0.094
O=C(NCc1cccs1)c1ccc2[nH]nc(NC(=O)c3cccc(N4CCOCC4)c3)c2c1 [Example 156, 3-(3-Morpholinobenzamido)-N-(thiophen-2-ylmethyl)-1H-indazole-5-carboxamide] | 0.077 | 0.29
O=C(NCc1cccs1)c1ccc2[nH]nc(NC(=O)c3ccc(NCC4CCCO4)cc3)c2c1 (stereo not shown) [Example 157, 3-(4-(((Tetrahydrofuran-2-yl)methyl)amino)benzamido)-N-(thiophen-2-ylmethyl)-1H-indazole-5-carboxamide] | 0.008 | 0.05
CN(C)CCNc1ccc(C(=O)Nc2n[nH]c3ccc(C(=O)NCc4cccs4)cc23)cc1 [Example 158, 3-(4-((2-(Dimethylamino)ethyl)amino)benzamido)-N-(thiophen-2-ylmethyl)-1H-indazole-5-carboxamide] | 0.0087 | 0.096
CC(C)CCNc1ccc(C(=O)Nc2n[nH]c3ccc(C(=O)NCc4cccs4)cc23)cc1 [Example 159, 3-(4-(Isopentylamino)benzamido)-N-(thiophen-2-ylmethyl)-1H-indazole-5-carboxamide] | 0.033 | 0.31
O=C(NCc1cccs1)c1ccc2[nH]nc(NC(=O)c3ccc(NCCC4=CCCCC4)cc3)c2c1 [Example 167, 3-(4-((2-(Cyclohex-1-en-1-yl)ethyl)amino)benzamido)-N-(thiophen-2-ylmethyl)-1H-indazole-5-carboxamide] | 1.1 | 3.9
O=C(NCc1cccs1)c1ccc2[nH]nc(NC(=O)c3ccc(N4CCNCC4)cc3)c2c1 [Example 171, 3-(4-(Piperazin-1-yl)benzamido)-N-(thiophen-2-ylmethyl)-1H-indazole-5-carboxamide] | 0.0003 | 0.0038
CN1CCN(c2ccc(C(=O)Nc3n[nH]c4ccc(C(=O)NCc5cnco5)cc34)cc2)CC1 [Example 172, 3-(4-(4-Methylpiperazin-1-yl)benzamido)-N-(oxazol-5-ylmethyl)-1H-indazole-5-carboxamide] | 0.035 | 0.31
